The values that follow come from US9175003B2, “Substituted azoanthracene derivatives and intermediates for preparation thereof” (TransTech Pharma, LLC, priority 2009, dated 2015).

Broadly, the EC50 is the concentration that produces a half-maximal response.

The target in the assay is human GLP-1 receptor (Homo sapiens (Human), UniProt P43220). Conditions: read-out: Mean EC50; cAMP, HTRF detection, 30 min at 37° C., HEK-293 cells expressing cloned human GLP-1 receptor.
Sequence of human GLP-1 receptor (P43220 24-463): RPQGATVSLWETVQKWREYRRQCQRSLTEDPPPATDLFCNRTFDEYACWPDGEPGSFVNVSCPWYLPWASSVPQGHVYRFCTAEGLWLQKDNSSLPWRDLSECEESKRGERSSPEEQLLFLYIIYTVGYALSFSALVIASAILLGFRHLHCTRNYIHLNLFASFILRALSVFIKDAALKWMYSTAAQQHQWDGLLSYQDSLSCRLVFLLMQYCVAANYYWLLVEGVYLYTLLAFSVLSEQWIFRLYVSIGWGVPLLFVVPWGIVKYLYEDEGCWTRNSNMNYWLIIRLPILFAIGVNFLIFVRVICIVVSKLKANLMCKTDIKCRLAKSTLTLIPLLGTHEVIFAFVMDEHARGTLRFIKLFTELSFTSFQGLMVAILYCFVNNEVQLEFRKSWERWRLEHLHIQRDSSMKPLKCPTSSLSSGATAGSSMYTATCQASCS

Take `Cc1nccc(-c2ccc(C[C@H](NC(=O)[C@@H]3Cc4cc5c(cc4CN3C(=O)Nc3cnccn3)O[C@@H](c3ccc(OCc4ccc(Cl)c(Cl)c4)cc3)CO5)C(=O)O)cc2)c1C` [Example 257, (S)-2-{[(3S,8S)-3-[4-(3,4-Dichloro-benzyloxy)-phenyl]-7-(pyrazin-2-ylcarbamoyl)-2,3,6,7,8,9-hexahydro-[1,4]dioxino[2,3-g]isoquinoline-8-carbonyl]-amino}-3-[4-(2,3-dimethyl-pyridin-4-yl)-phenyl]-propionic acid]: the EC50 was 348 nM. `Cc1nccc(-c2ccc(C[C@H](NC(=O)[C@@H]3Cc4cc5c(cc4CN3C(=O)Nc3ccccn3)O[C@@H](c3ccc(OCc4ccc(Cl)c(Cl)c4)cc3)CO5)C(=O)O)cc2)c1C` [Example 258, (S)-2-{[(3S,8S)-3-[4-(3,4-dichloro-benzyloxy)-phenyl]-7-(pyridin-2-ylcarbamoyl)-2,3,6,7,8,9-hexahydro-[1,4]dioxino[2,3-g]isoquinoline-8-carbonyl]-amino}-3-[4-(2,3-dimethyl-pyridin-4-yl)-phenyl]-propionic acid]: the EC50 worked out at 251 nM. For the compound `Cc1ncoc1C(=O)N1Cc2cc3c(cc2C[C@H]1C(=O)N[C@@H](Cc1ccc(Oc2ccnc(C)c2C)cc1)C(=O)O)OC[C@H](c1ccc(OCc2ccc(Cl)c(Cl)c2)cc1)O3` [Example 263, (S)-2-{[(3S,8S)-3-[4-(3,4-Dichloro-benzyloxy)-phenyl]-7-(4-methyl-oxazole-5-carbonyl)-2,3,6,7,8,9-hexahydro-[1,4]dioxino[2,3-g]isoquinoline-8-carbonyl]-amino}-3-[4-(2,3-dimethyl-pyridin-4-yloxy)-phenyl]-propionic acid], the EC50 turned out to be 187 nM. As to `Cc1nc(C)c(C(=O)N2Cc3cc4c(cc3C[C@H]2C(=O)N[C@@H](Cc2ccc(Oc3ccnc(C)c3C)cc2)C(=O)O)OC[C@H](c2ccc(OCc3ccc(Cl)c(Cl)c3)cc2)O4)o1` [Example 265, (S)-2-{[(3S,8S)-3-[4-(3,4-Dichloro-benzyloxy)-phenyl]-7-(2,4-dimethyl-oxazole-5-carbonyl)-2,3,6,7,8,9-hexahydro-[1,4]dioxino[2,3-g]isoquinoline-8-carbonyl]-amino}-3-[4-(2,3-dimethyl-pyridin-4-yloxy)-phenyl]-propionic acid], the EC50 was 95 nM. In the case of `Cc1cc(C(=O)N2Cc3cc4c(cc3C[C@H]2C(=O)N[C@@H](Cc2ccc(Oc3ccnc(C)c3C)cc2)C(=O)O)OC[C@H](c2ccc(OCc3ccc(Cl)c(Cl)c3)cc2)O4)n(C)n1` [Example 266, (S)-2-{[(3S,8S)-3-[4-(3,4-Dichloro-benzyloxy)-phenyl]-7-(2,5-dimethyl-2H-pyrazole-3-carbonyl)-2,3,6,7,8,9-hexahydro-[1,4]dioxino[2,3-g]isoquinoline-8-carbonyl]-amino}-3-[4-(2,3-dimethyl-pyridin-4-yloxy)-phenyl]-propionic acid], the EC50 was determined as 132 nM.

Regarding `Cc1cc(C(=O)N2Cc3cc4c(cc3C[C@H]2C(=O)N[C@@H](Cc2ccc(-c3ccnc(C)c3C)cc2)C(=O)O)OC[C@H](c2ccc(OCc3ccc(Cl)c(Cl)c3)cc2)O4)n(C)n1` [Example 270, (S)-2-{[(3S,8S)-3-[4-(3,4-Dichloro-benzyloxy)-phenyl]-7-(2,5-dimethyl-2H-pyrazole-3-carbonyl)-2,3,6,7,8,9-hexahydro-[1,4]dioxino[2,3-g]isoquinoline-8-carbonyl]-amino}-3-[4-(2,3-dimethyl-pyridin-4-yl)-phenyl]-propionoc acid], the EC50 came to 142 nM. For `Cc1cc(C(=O)N2Cc3cc4c(cc3C[C@H]2C(=O)N[C@@H](Cc2ccc(-c3ccnc(C)c3C)cc2)C(=O)O)OC[C@H](c2ccc(OCc3ccc(Cl)c(Cl)c3)cc2)O4)no1` [Example 271, (S)-2-{[(3S,8S)-3-[4-(3,4-Dichloro-benzyloxy)-phenyl]-7-(5-methyl-isoxazole-3-carbonyl)-2,3,6,7,8,9-hexahydro-[1,4]dioxino[2,3-g]isoquinoline-8-carbonyl]-amino}-3-[4-(2,3-dimethyl-pyridin-4-yl)-phenyl]-propionic acid] the value was 102 nM; for `Cc1nccc(-c2ccc(C[C@H](NC(=O)[C@@H]3Cc4cc5c(cc4CN3C(=O)C3CCN(C(=O)OC(C)(C)C)CC3)O[C@@H](c3ccc(OCc4ccc(Cl)c(Cl)c4)cc3)CO5)C(=O)O)cc2)c1C` [Example 274, 4-{(3S,8S)-8-{(S)-1-Carboxy-2-[4-(2,3-dimethyl-pyridin-4-yl)-phenyl]-ethylcarbamoyl}-3-[4-(3,4-dichloro-benzyloxy)-phenyl]-2,3,8,9-tetrahydro-6H-[1,4]dioxino[2,3-g]isoquinoline-7-carbonyl}-piperidine-1-carboxyl is acid tert-butyl ester], 2 nM; for `Cc1nccc(-c2ccc(C[C@H](NC(=O)[C@@H]3Cc4cc5c(cc4CN3C(=O)c3cccc(O)c3)O[C@@H](c3ccc(OCc4ccc(Cl)c(Cl)c4)cc3)CO5)C(=O)O)cc2)c1C` [Example 277, (S)-2-{[(3S,8S)-3-[4-(3,4-Dichloro-benzyloxy)-phenyl]-7-(3-hydroxy-benzoyl)-2,3,6,7,8,9-hexahydro-[1,4]dioxino[2,3-g]isoquinoline-8-carbonyl]-amino}-3-[4-(2,3-dimethyl-pyridin-4-yl)-phenyl]-propionic acid], 143 nM. With `Cc1nccc(-c2ccc(C[C@H](NC(=O)[C@@H]3Cc4cc5c(cc4CN3C(=O)c3cc(F)cc(F)c3)O[C@@H](c3ccc(OCc4ccc(Cl)c(Cl)c4)cc3)CO5)C(=O)O)cc2)c1C` [Example 278, (S)-2-{[(3S,8S)-3-[4-(3,4-Dichloro-benzyloxy)-phenyl]-7-(3,5-difluoro-benzoyl)-2,3,6,7,8,9-hexahydro-[1,4]dioxino[2,3-g]isoquinoline-8-carbonyl]-amino}-3-[4-(2,3-dimethyl-pyridin-4-yl)-phenyl]-propionic acid], the EC50 is 45 nM.

Regarding `Cc1nccc(-c2ccc(C[C@H](NC(=O)[C@@H]3Cc4cc5c(cc4CN3C(=O)[C@H]3CCCN3C(=O)OC(C)(C)C)O[C@@H](c3ccc(OCc4ccc(Cl)c(Cl)c4)cc3)CO5)C(=O)O)cc2)c1C` [Example 279, (R)-2-{(3S,8S)-8-{(S)-1-Carboxy-2-[4-(2,3-dimethyl-pyridin-4-yl)-phenyl]-ethylcarbamoyl}-3-[4-(3,4-dichloro-benzyloxy)-phenyl]-2,3,8,9-tetrahydro-6H-[1,4]dioxino[2,3-g]isoquinoline-7-carbonyl}-pyrrolidine-1-carboxylic acid tert-butyl ester], the EC50 was found to be 15 nM. `Cc1nccc(-c2ccc(C[C@H](NC(=O)[C@@H]3Cc4cc5c(cc4CN3C(=O)[C@H]3CCN(C(=O)OC(C)(C)C)C3)O[C@@H](c3ccc(OCc4ccc(Cl)c(Cl)c4)cc3)CO5)C(=O)O)cc2)c1C` [Example 280, (S)-3-{(3S,8S)-8-{(S)-1-Carboxy-2-[4-(2,3-dimethyl-pyridin-4-yl)-phenyl]-ethylcarbamoyl}-3-[4-(3,4-dichloro-benzyloxy)-phenyl]-2,3,8,9-tetrahydro-6H-[1,4]dioxino[2,3-g]isoquinoline-7-carbonyl}-pyrrolidine-1-carboxylic acid tert-butyl ester]: the EC50 was 165 nM. Regarding `Cc1nccc(-c2ccc(C[C@H](NC(=O)[C@@H]3Cc4cc5c(cc4CN3C(=O)[C@@H]3CCN(C(=O)OC(C)(C)C)C3)O[C@@H](c3ccc(OCc4ccc(Cl)c(Cl)c4)cc3)CO5)C(=O)O)cc2)c1C` [Example 281, (R)-3-{(3S,8S)-8-{(S)-1-Carboxy-2-[4-(2,3-dimethyl-pyridin-4-yl)-phenyl]-ethylcarbamoyl}-3-[4-(3,4-dichloro-benzyloxy)-phenyl]-2,3,8,9-tetrahydro-6H-[1,4]dioxino[2,3-g]isoquinoline-7-carbonyl}-pyrrolidine-1-carboxylic acid tert-butyl ester], the EC50 was found to be 5 nM.

Consider `Cc1nccc(-c2ccc(C[C@H](NC(=O)[C@@H]3Cc4cc5c(cc4CN3C(=O)C3Cc4ccccc4C3)O[C@@H](c3ccc(OCc4ccc(Cl)c(Cl)c4)cc3)CO5)C(=O)O)cc2)c1C` [Example 282, (S)-2-{[(3S,8S)-3-[4-(3,4-Dichloro-benzyloxy)-phenyl]-7-(indane-2-carbonyl)-2,3,6,7,8,9-hexahydro-[1,4]dioxino[2,3-g]isoquinoline-8-carbonyl]-amino}-3-[4-(2,3-dimethyl-pyridin-4-yl)-phenyl]-propionic acid], for which the EC50 stood at 198 nM. In the case of `Cc1nccc(-c2ccc(C[C@H](NC(=O)[C@@H]3Cc4cc5c(cc4CN3C(=O)OC(C)C)O[C@@H](c3ccc(OCc4ccc(Cl)c(Cl)c4)cc3)CO5)C(=O)O)cc2)c1C` [Example 293, (3S,8S)-8-{(S)-1-Carboxy-2-[4-(2,3-dimethyl-pyridin-4-yl)-phenyl]-ethylcarbamoyl}-3-[4-(3,4-dichloro-benzyloxy)-phenyl]-2,3,8,9-tetrahydro-6H-[1,4]dioxino[2,3-g]isoquinoline-7-carboxylic acid isopropyl ester], the EC50 was determined as 261 nM. For `Cc1nccc(-c2ccc(C[C@H](NC(=O)[C@@H]3Cc4cc5c(cc4CN3C(=O)OCC(C)C)O[C@@H](c3ccc(OCc4ccc(Cl)c(Cl)c4)cc3)CO5)C(=O)O)cc2)c1C` [Example 295, (3S,8S)-8-{(S)-1-Carboxy-2-[4-(2,3-dimethyl-pyridin-4-yl)-phenyl]-ethylcarbamoyl}-3-[4-(3,4-dichloro-benzyloxy)-phenyl]-2,3,8,9-tetrahydro-6H-[1,4]dioxino[2,3-g]isoquinoline-7-carboxylic acid isobutyl ester] the value was 137 nM; for `CCCCOC(=O)N1Cc2cc3c(cc2C[C@H]1C(=O)N[C@@H](Cc1ccc(Oc2ccnc(C)c2C)cc1)C(=O)O)OC[C@H](c1ccc(OCc2ccc(Cl)c(Cl)c2)cc1)O3` [Example 299, (3S,8S)-8-{(S)-1-Carboxy-2-[4-(2,3-dimethyl-pyridin-4-yloxy)-phenyl]-ethylcarbamoyl}-3-[4-(3,4-dichloro-benzyloxy)-phenyl]-2,3,8,9-tetrahydro-6H-[1,4]dioxino[2,3-g]isoquinoline-7-carboxylic acid butyl ester], 263 nM.
